# Reference: PMC8745710, “Biological Evaluation and Molecular Docking Studies of Novel 1,3,4-Oxadiazole Derivatives of 4,6-Dimethyl-2-sulfanylpyridine-3-carboxamide” (International Journal of Molecular Sciences, 2022)
# What was measured:
# [1] = biological target: T1, COX-1 (Ovis aries, UniProt P05979); assay: COX colorimetric inhibitor screening assay, COX-1; assay type: biochemical; conditions: after 2 min of incubation, n = 5; for IC50: read-out: IC50 [µM] ± SD COX-1
# T1 construct: purchased Cayman Chemical Company, Ann Arbor, MI, USA
# T1 sequence (P05979 25-600): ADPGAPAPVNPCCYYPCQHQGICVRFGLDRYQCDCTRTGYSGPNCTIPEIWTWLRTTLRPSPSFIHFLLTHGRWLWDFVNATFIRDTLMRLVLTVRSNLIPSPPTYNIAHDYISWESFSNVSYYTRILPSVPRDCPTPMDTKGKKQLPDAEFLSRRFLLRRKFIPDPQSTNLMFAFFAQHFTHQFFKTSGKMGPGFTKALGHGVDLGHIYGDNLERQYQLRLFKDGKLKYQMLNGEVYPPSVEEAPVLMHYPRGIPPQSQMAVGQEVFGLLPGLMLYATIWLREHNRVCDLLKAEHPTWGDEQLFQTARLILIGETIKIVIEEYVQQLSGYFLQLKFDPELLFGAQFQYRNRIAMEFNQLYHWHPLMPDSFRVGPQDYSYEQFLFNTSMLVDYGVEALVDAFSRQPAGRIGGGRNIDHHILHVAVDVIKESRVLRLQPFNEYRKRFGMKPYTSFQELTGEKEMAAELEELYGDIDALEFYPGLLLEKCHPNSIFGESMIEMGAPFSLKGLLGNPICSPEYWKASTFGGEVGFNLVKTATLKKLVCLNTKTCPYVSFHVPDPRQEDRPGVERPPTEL
# Excerpt: (§1) The compounds were studied for their potencies to inhibit COX-1 and COX-2 enzymes by the colorimetric inhibitor screening assay.
# (§2) A COX Colorimetric Inhibitor Screening Assay Kit, produced by Cayman Chemical Company, Ann Arbor, MI, USA, was used. It used the colorimetric monitoring of oxidized form of TMPD (N,N,N′,N′-tetramethyl-p-phenylenediamine) which was produced during reduction of prostaglandin G2 (PGG2) to PGH2. […] Reagents used it this assay were: COX-1 and COX-2 enzymes, Tris-HCl buffer, solutions of heme in DMSO and TMPD, arachidonic acid, KOH. To be sure that 100% enzymatic activity was achieved each sample was measured 3 times. The probes were measured after two minutes of incubation with tested compounds in the comparison to the initial activity of enzyme.
# [2] = biological target: T2, COX-2 (Homo sapiens, UniProt P35354); assay: COX colorimetric inhibitor screening assay, COX-2; assay type: biochemical; conditions: for IC50: read-out: IC50 [µM] ± SD COX-2; for COX-2/COX-1 Selectivity Ratio: ratio of IC50 COX-2 / IC50 COX-1
# T2 construct: purchased Cayman Chemical Company, Ann Arbor, MI, USA
# T2 sequence (P35354 18-604): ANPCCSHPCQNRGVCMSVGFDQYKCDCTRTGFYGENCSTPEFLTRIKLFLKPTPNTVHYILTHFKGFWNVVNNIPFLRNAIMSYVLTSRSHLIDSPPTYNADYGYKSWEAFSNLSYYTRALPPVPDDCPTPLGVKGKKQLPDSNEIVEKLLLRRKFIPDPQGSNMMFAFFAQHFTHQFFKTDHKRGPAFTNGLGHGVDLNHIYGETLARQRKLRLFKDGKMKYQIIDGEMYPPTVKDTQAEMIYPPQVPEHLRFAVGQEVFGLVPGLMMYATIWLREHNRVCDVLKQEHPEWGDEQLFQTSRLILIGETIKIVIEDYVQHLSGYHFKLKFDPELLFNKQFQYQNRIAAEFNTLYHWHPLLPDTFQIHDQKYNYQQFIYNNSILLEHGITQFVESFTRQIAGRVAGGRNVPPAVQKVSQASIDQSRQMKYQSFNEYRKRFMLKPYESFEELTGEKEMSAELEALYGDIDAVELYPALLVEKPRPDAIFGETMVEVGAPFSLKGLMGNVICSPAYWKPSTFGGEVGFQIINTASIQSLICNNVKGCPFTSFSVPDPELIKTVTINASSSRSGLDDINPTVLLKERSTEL
# Excerpt: as §1, §2
# [3] = system: VERO (kidney epithelial cells); assay: MTT assay, VERO; assay type: cell-based; conditions: Chlorocebus sabaeus, Vero, 48 h incubation, read-out: IC50 [µM] ± SD VERO
# Excerpt: (§3) The MTT (3-[4,5-dimethylthiazol-2-yl]-2,5-diphenyl tetrazolium bromide) assay was used to determine the cytotoxicity of tested compounds towards different cell lines: normal human dermal fibroblasts (NHDF), kidney epithelial cells (VERO), fibroblasts from Chinese hamster lung (V79) and four human cancer cells: A549 (pulmonary basal cell alveolar adenocarcinoma), MCF-7 (breast adenocarcinoma), LoVo (colon adenocarcinoma), and its drug resistant subline LoVo/Dx. The cell lines used in this study express COX-1 and COX-2. The LoVo line expressed COX-1, the LoVo/Dx subline express both COX-1 and COX-2 [61].
# (§4) Each cell line was grown in the culture media recommended by supplier. Before the test they were detached with trypsin/EDTA solution, then to neutralize the effect of Trypsin/EDTA solution, FBS containing medium was used. After centrifugation the cells were stained with 0.4% solution of trypan blue, counted and inspected for viability using microscope. In the end, cells were inserted into 96-well culture plates and incubated in CO2 incubator (37 °C, 24 h). The number of cells was 2 × 10^3 cells per well. The tested compounds with different concentrations (5, 10, 20, 50, 100 µM) were dissolved in DMSO and then added to the cells (the final DMSO concentration was 0.1%). The cultures were incubated for another 48 h. After that time the cells were collected to be used in tests.
# (§5) MTT assay was used to find out how tested compounds influence the metabolic activity of investigated cell lines. The cells were incubated with tested compounds. After removing of supernatant, 1 mg/mL of MTT solution in MEM was added to the plate (to each well) and then the plates were incubated at 37 °C for 2 h. The medium was removed again, and formazan crystals were dissolved in isopropanol. A Varioscan LUX microplate reader (Thermo Fisher Scientific, Waltham, MA, USA) was used to measure absorbance at 570 nm.
# [4] = system: V79 (fibroblasts from Chinese hamster lung); assay: MTT assay, V79; assay type: cell-based; conditions: Cricetulus griseus, Fibroblast, 48 h incubation, read-out: IC50 [µM] ± SD V79
# Excerpt: as §3, §4, §5
# [5] = system: A549 (pulmonary basal cell alveolar adenocarcinoma); assay: MTT assay, A549; assay type: cell-based; conditions: Homo sapiens, 48 h incubation, read-out: IC50 [µM] ± SD A549
# Excerpt: as §3, §4, §5
# [6] = system: MCF-7 (breast adenocarcinoma); assay: MTT assay, MCF-7; assay type: cell-based; conditions: Homo sapiens, MCF7, 48 h incubation, read-out: IC50 [µM] ± SD MCF-7
# Excerpt: as §3, §4, §5
# [7] = system: LoVo (colon adenocarcinoma); assay: MTT assay, LoVo; assay type: cell-based; conditions: Homo sapiens, 48 h incubation, read-out: IC50 [µM] ± SD LoVo
# Excerpt: as §3, §4, §5
# [8] = after 2 min of incubation, n = 5
Structure (SMILES),IC50 [1] [µM],"IC50 [2, 8] [µM]",IC50 [5] [µM],IC50 [6] [µM],IC50 [7] [µM],melting point [°C],COX-2/COX-1 Selectivity Ratio [2],"IC50 [µM] ± SD COX-2 [2, 8]",IC50 [3] [µM],IC50 [4] [µM],IC50 [µM] ± SD COX-1 [1]
"Cc1cc(C)c(C(=O)NCc2nn(CC(=O)NN=Cc3ccccc3Br)c(=S)o2)c(S)n1 [Compound 13, 4,6-Dimethyl-N-{[4-(2-(2-(2-bromobenzylidene)hydrazinyl)-2-oxoethyl)-5-sulfanylidene-4,5-dihydro-1,3,4-oxadiazole-2-yl]methyl}-2-sulfanylpyridine-3-carboxamide]",84.4 ± 5.89,73.2 ± 5.66,3.16 ± 0.21,7.23 ± 0.49,2.89 ± 0.08,285 to 288,,,55.7 ± 1.84,65.4 ± 4.04,
"Cc1ccc(C=NNC(=O)Cn2nc(CNC(=O)c3c(C)cc(C)nc3S)oc2=S)cc1 [Compound 7, 4,6-Dimethyl-N-{[4-(2-(2-(4-methylbenzylidene)hydrazinyl)-2-oxoethyl)-5-sulfanylidene-4,5-dihydro-1,3,4-oxadiazole-2-yl]methyl}-2-sulfanylpyridine-3-carboxamide]",148 ± 19.8,184 ± 18.8,3.72 ± 0.54,6.33 ± 0.56,3.46 ± 0.39,215 to 220,1.25,,68.3 ± 3.24,47.7 ± 1.73,
"Cc1cc(C)c(C(=O)NCc2nn(CC(=O)NN=Cc3ccc(C#N)cc3)c(=S)o2)c(S)n1 [Compound 9, 4,6-Dimethyl-N-{[4-(2-(2-(4-cyanobenzylidene)hydrazinyl)-2-oxoethyl)-5-sulfanylidene-4,5-dihydro-1,3,4-oxadiazole-2-yl]methyl}-2-sulfanylpyridine-3-carboxamide]",154 ± 6.29,103 ± 10.6,3.36 ± 0.2,8.22 ± 5.98,3.24 ± 0.1,298 to 300,0.67,,89.8 ± 8.43,77.7 ± 4.41,
"Cc1cc(C)c(C(=O)NCc2nn(CC(=O)NN=Cc3ccc(Cl)cc3)c(=S)o2)c(S)n1 [Compound 10, 4,6-Dimethyl-N-{[4-(2-(2-(4-chlorobenzylidene)hydrazinyl)-2-oxoethyl)-5-sulfanylidene-4,5-dihydro-1,3,4-oxadiazole-2-yl]methyl}-2-sulfanylpyridine-3-carboxamide]",,128 ± 1.87,3.52 ± 0.19,6.19 ± 0.19,3.12 ± 0.23,278 to 280,,,130 ± 9.5,56.1 ± 5.42,selectively inhibited the activity of COX-2
"Cc1cc(C)c(C(=O)NCc2nn(CC(=O)NN=Cc3ccccc3)c(=S)o2)c(S)n1 [Compound 5, 4,6-Dimethyl-N-{[4-(2-(2-benzylidenehydrazinyl)-2-oxoethyl)-5-sulfanylidene-4,5-dihydro-1,3,4-oxadiazol-2-yl]methyl}-2-sulfanylpyridine-3-carboxamide]",73.9 ± 3.03,187 ± 15.3,3.62 ± 0.43,6.37 ± 1.09,3.13 ± 0.17,236 to 239,2.53,,100 ± 13.5,84.3 ± 3.4,
"Cc1cc(C)c(C(=O)NCc2nn(CC(=O)NN=Cc3ccc(C(F)(F)F)cc3)c(=S)o2)c(S)n1 [Compound 11, 4,6-Dimethyl-N-{[4-(2-(2-(4-trifluoromethylbenzylidene)hydrazinyl)-2-oxoethyl)-5-sulfanylidene-4,5-dihydro-1,3,4-oxadiazole-2-yl]methyl}-2-sulfanylpyridine-3-carboxamide]",86.2 ± 2.6,170 ± 19.1,3.72 ± 0.24,8.29 ± 4.45,3.12 ± 0.31,253 to 255,1.97,,104 ± 4.98,55.2 ± 2.75,

# The remaining molecules from weak to strong by IC50 [5], led by results:
IC50 [1] [µM],"IC50 [2, 8] [µM]",IC50 [5] [µM],IC50 [6] [µM],IC50 [7] [µM],melting point [°C],COX-2/COX-1 Selectivity Ratio [2],"IC50 [µM] ± SD COX-2 [2, 8]",Structure (SMILES),IC50 [3] [µM],IC50 [4] [µM],IC50 [µM] ± SD COX-1 [1]
157 ± 12.1,,4.34 ± 0.56,9.41 ± 4.8,3.6 ± 0.55,235 to 238,,showed only COX-1 inhibitory activity,"CSc1ccc(/C=N\NC(=O)Cn2nc(CNC(=O)c3c(C)cc(C)nc3S)oc2=S)cc1 [Compound 8, 4,6-Dimethyl-N-{[4-(2-(2-(4-methysulfanylbenzylidene)hydrazinyl)-2-oxoethyl)-5-sulfanylidene-4,5-dihydro-1,3,4-oxadiazole-2-yl]methyl}-2-sulfanylpyridine-3-carboxamide]",50.4 ± 2.45,71.1 ± 2.4,
145 ± 20.9,174 ± 5.84,4.05 ± 0.26,6.37 ± 0.19,3.2 ± 0.26,295 to 298,1.20,,"Cc1cc(C)c(C(=O)NCc2nn(CC(=O)NN=Cc3ccc(F)cc3)c(=S)o2)c(S)n1 [Compound 6, 4,6-Dimethyl-N-{[4-(2-(2-(4-fluorobenzylidene)hydrazinyl)-2-oxoethyl)-5-sulfanylidene-4,5-dihydro-1,3,4-oxadiazole-2-yl]methyl}-2-sulfanylpyridine-3-carboxamide]",59.6 ± 5.42,80.7 ± 5.6,
66.8 ± 5.19,90.7 ± 19.6,3.88 ± 0.5,9.04 ± 2.84,3.07 ± 0.21,273 to 275,1.36,,"Cc1cc(C)c(C(=O)NCc2nn(CC(=O)NN=Cc3cccc(Cl)c3)c(=S)o2)c(S)n1 [Compound 12, 4,6-Dimethyl-N-{[4-(2-(2-(3-chlorobenzylidene)hydrazinyl)-2-oxoethyl)-5-sulfanylidene-4,5-dihydro-1,3,4-oxadiazole-2-yl]methyl}-2-sulfanylpyridine-3-carboxamide]",79.2 ± 14.4,52.8 ± 7.2,
